Data as given in the supplement of paper PMC4862054.

Key:
Assay in all cases: normalised response (% of control), CellTox Green; higher = less cell death (100 = DMSO, 0 = benzethonium chloride kill control)
Conditions in all cases: incubation time: 72 h
[1] = test system: BT-474
Method in brief: (§1)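 Breast cancer cell lines (20 µl suspension) were seeded into 384-well plates holding compound at 5 concentrations in 10-fold steps over a compound-specific 10,000-fold range, then incubated 72 h. CellTox Green fluorescence (485/520 nm) was read first, then CellTiter-Glo luminescence after 10 min at room temperature. Each plate was normalised to 0.1 % DMSO (100) and a positive kill control (0). Each value is the normalised signal at a single concentration of the series.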

[2] = test system: MCF-10A
Method in brief: as §1

[3] = test system: MDA-MB-468
Method in brief: as §1

[4] = test system: MDA-MB-231
Method in brief: as §1

[5] = test system: MDA-MB-453
Method in brief: as §1

[6] = test system: DU-4475
Method in brief: as §1

[7] = test system: CAL-120
Method in brief: as §1

Row | SMILES | normalised response [1] [%] | normalised response [2] [%] | normalised response [3] [%] | normalised response [4] [%] | normalised response [5] [%] | normalised response [6] [%] | normalised response [7] [%]
1 | COc1cc(OC2CCN(C)CC2)ccc1Nc1ncc2c(n1)n(C1CCCC1)c(=O)n2C [AZ 3146] (10000 nM) | 70.2 | 71 | 75.5 | 81.8 | 105 | 90.2 | 94.6
2 | CO[C@H]1C[C@@H]2CC[C@@H](C)[C@@](O)(O2)C(=O)C(=O)N2CCCC[C@H]2C(=O)O[C@H]([C@H](C)C[C@@H]2CC[C@@H](OP(C)(C)=O)[C@H](OC)C2)CC(=O)[C@H](C)/C=C(\C)[C@@H](O)[C@@H](OC)C(=O)[C@H](C)C[C@H](C)/C=C/C=C/C=C/1C [Ridaforolimus] (100 nM) | 100 | 97.3 | 196 | 51.6 | 104 | 100 | 106
3 | C=C1C[C@@H]2[C@H](CC[C@]3(C)C(=O)CC[C@@H]23)[C@@]2(C)C=CC(=O)C=C12 [Exemestane] (10000 nM) | 105 | 111 | 103 | 92.4 | 106 | 106 | 103
4 | Oc1ccc2c(c1)CC[C@H](c1ccccc1)[C@@H]2c1ccc(OCCN2CCCC2)cc1 [Lasofoxifene] (100 nM) | 103 | 111 | 111 | 125 | 88 | 105 | 93.6
5 | N#Cc1ccc(COC[C@H]2O[C@@H](n3c(NCc4ccc(Cl)c(Cl)c4)nc4c(N)ncnc43)[C@H](O)[C@@H]2O)cc1 (10000 nM) | 98.8 | 103 | 103 | 105 | 102 | 104 | 98.2
6 | COc1cc2ncnc(Nc3ccc(F)c(Cl)c3)c2cc1OCCCN1CCOCC1 [Gefitinib] (10000 nM) | 17.4 | 82.9 | 133 | 68.6 | 79 | 96.9 | 95.4
7 | Cc1[nH]c2ccccc2c1CCNCc1ccc(/C=C/C(=O)NO)cc1 [Panobinostat] (100 nM) | 36.8 | 99.6 | 82.5 | -11.6 | 88.3 | 62.1 | 28.7
8 | CN(C)CCOc1ccc(/C(=C(/CCCl)c2ccccc2)c2ccccc2)cc1 [Toremifene] (1000 nM) | 100 | 108 | 101 |  | 106 | 99.9 | 99
9 | O=P1(N(CCCl)CCCl)NCCCO1 (centres undefined) [Cyclophosphamide] (40000 nM) | 99.1 | 76.1 |  | 102 | 106 | 100 | 98.7
10 | O=C(Nc1ccncc1)C(=O)c1cn(Cc2ccc(Cl)cc2)c2ccccc12 [Indibulin] (1000 nM) | 92.1 | 87.2 | 91.5 | 51.6 | 106 | 101 | 89.4
11 | C=C1C[C@@H]2[C@H](CC[C@]3(C)C(=O)CC[C@@H]23)[C@@]2(C)C=CC(=O)C=C12 [Exemestane] (1000 nM) | 97.2 | 112 | 149 | 99.6 | 112 | 109 | 105
12 | CCc1c2c(nc3ccc(OC(=O)N4CCC(N5CCCCC5)CC4)cc13)-c1cc3c(c(=O)n1C2)COC(=O)[C@]3(O)CC [Irinotecan] (10000 nM) | 102 | 100 | 119 | 106 | 109 | 84.8 | 74.3
13 | CC(C)C[C@@H](C(=O)N[C@H](C(=O)OC1CCCC1)c1ccccc1)[C@H](O)C(=O)NO [Tosedostat] (10000 nM) | 66.9 | 86.8 | -9 | -8.96 | 86.1 | 97.8 | 36.2
14 | NC(=O)c1ccc(I)c([N+](=O)[O-])c1 [Iniparib] (10000 nM) | 89.9 | 77.3 | 146 |  | 99.6 | 94.3 | 88.8
15 | COc1cc(OC2CCN(C)CC2)ccc1Nc1ncc2c(n1)n(C1CCCC1)c(=O)n2C [AZ 3146] (1000 nM) | 101 | 99.3 | 88.7 |  | 109 | 97.9 | 100
16 | CC(C)C[C@@H](C(=O)N[C@H](C(=O)OC1CCCC1)c1ccccc1)[C@H](O)C(=O)NO [Tosedostat] (1000 nM) | 91.7 | 80.4 | 33.4 | 14.7 | 95.1 | 101 | 39.9
17 | O=C(Nc1cccnc1)N1CCC(Cc2cccc(Oc3ccc(C(F)(F)F)cn3)c2)CC1 [PF-3845] (10000 nM) | 76.7 | 103 | 172 | 108 | 63.6 | 101 | 97.4
18 | COc1cc2ncnc(Nc3ccc(F)c(Cl)c3)c2cc1OCCCN1CCOCC1 [Gefitinib] (1000 nM) | 91 | 99.2 | 125 | 101 | 98.3 | 101 | 100
19 | O=P1(N(CCCl)CCCl)NCCCO1 (centres undefined) [Cyclophosphamide] (4000 nM) | 100 | 86.7 | 100 | 113 | 105 | 102 | 101
20 | CN(C)CCOc1ccc(/C(=C(/CCCl)c2ccccc2)c2ccccc2)cc1 [Toremifene] (10000 nM) | 22.9 | 69.2 | 9.03 | 47.6 | 86.4 | 94.6 | 91.8
21 | CNC(=O)c1cc(Oc2ccc(NC(=O)Nc3ccc(Cl)c(C(F)(F)F)c3)c(F)c2)ccn1 [Regorafenib] (10000 nM) | 82 | 94.5 | 152 | 94.3 | 98.3 | 92.5 | 97.2

Row | SMILES | normalised response [1] [%] | normalised response [2] [%] | normalised response [3] [%] | normalised response [4] [%] | normalised response [5] [%] | normalised response [6] [%] | normalised response [7] [%]
22 | Cc1ccc(NC(=O)c2ccc(CN3CCN(C)CC3)cc2)cc1Nc1nc(-c2cccnc2)cs1 [Masitinib] (10000 nM) | 53.3 | 90.8 | 37 | -12.8 | 87.1 | 100 | 78.5
23 | CNC(=O)c1cc(Oc2ccc(NC(=O)Nc3ccc(Cl)c(C(F)(F)F)c3)c(F)c2)ccn1 [Regorafenib] (1000 nM) | 101 | 101 | 143 | 115 | 107 | 102 | 102
24 | O=C(/C=C/c1cccc(S(=O)(=O)Nc2ccccc2)c1)NO [Belinostat] (1000 nM) | 65.2 | 70 | 97.7 | 22.3 | 99.5 | 75.8 | 70.4
25 | c1ccc2c(CCNc3ccc(Nc4ccncc4)cc3)c[nH]c2c1 [Serdemetan] (10000 nM) | 56.7 | 89.8 | 124 | 46.1 | 95.2 | 68.3 | 88.8
26 | O=C(Nc1cccnc1)N1CCC(Cc2cccc(Oc3ccc(C(F)(F)F)cn3)c2)CC1 [PF-3845] (1000 nM) | 102 | 115 | 132 | 116 | 108 | 108 | 106
27 | Cc1ccc(NC(=O)c2ccc(CN3CCN(C)CC3)cc2)cc1Nc1nc(-c2cccnc2)cs1 [Masitinib] (1000 nM) | 102 | 103 | 177 | 114 | 102 | 100 | 99.2
28 | CN(C)c1nc(N(C)C)nc(N(C)C)n1 [Altretamine] (10000 nM) | 102 | 102 | 152 | 112 | 105 | 98.3 | 102
29 | CCc1c2c(nc3ccc(OC(=O)N4CCC(N5CCCCC5)CC4)cc13)-c1cc3c(c(=O)n1C2)COC(=O)[C@]3(O)CC [Irinotecan] (1000 nM) | 103 |  | 141 | 113 | 107 | 99.1 | 93.5
30 | Oc1ccc2c(c1)CC[C@H](c1ccccc1)[C@@H]2c1ccc(OCCN2CCCC2)cc1 [Lasofoxifene] (1000 nM) | 99.8 | 67.1 | 178 | 119 | 104 | 102 | 99.7
31 | COc1cc2/c(=N/c3ccc(Br)cc3F)nc[nH]c2cc1OCC1CCN(C)CC1 [Vandetanib] (1000 nM) | 96.7 | 84 | 128 | 80.5 | 96.7 | 96.9 | 56.3
32 | CN(C)c1nc(N(C)C)nc(N(C)C)n1 [Altretamine] (1000 nM) | 100 | 78 | 140 | 110 | 105 | 103 | 104
33 | N#Cc1ccc(COC[C@H]2O[C@@H](n3c(NCc4ccc(Cl)c(Cl)c4)nc4c(N)ncnc43)[C@H](O)[C@@H]2O)cc1 (1000 nM) | 100 | 92.3 | 143 | 114 | 112 | 103 | 96.4
34 | O=C(Nc1ccncc1)C(=O)c1cn(Cc2ccc(Cl)cc2)c2ccccc12 [Indibulin] (10000 nM) | 81.4 | 84 | 63.6 | 46.3 | 105 | 106 | 85.8
35 | COCC[n+]1c2c(n(Cc3cnccn3)c1C)C(=O)c1ccccc1C2=O [YM155] (10000 nM) | -15 | -38.3 | -110 | 29.1 | 28.4 | 68.1 | -11.6
36 | c1ccc2c(CCNc3ccc(Nc4ccncc4)cc3)c[nH]c2c1 [Serdemetan] (1000 nM) | 99.5 | 96.9 | 12.4 | 93.9 | 102 | 94 | 97.1
37 | NC(=O)c1ccc(I)c([N+](=O)[O-])c1 [Iniparib] (1000 nM) | 94.6 | 81.6 | 125 | 98.8 | 88.2 | 95.2 | 93.3
38 | Cc1[nH]c2ccccc2c1CCNCc1ccc(/C=C/C(=O)NO)cc1 [Panobinostat] (1000 nM) | 19.9 | 34.9 | -0.17 | -36.7 | 75.5 | 68.2 | -30.8
39 | COCC1(CO)C(=O)C2CCN1CC2 (centres undefined) [Prima-1 Met] (10000 nM) | 101 | 106 | 119 | 123 | 104 | 107 | 92.1
40 | COCC[n+]1c2c(n(Cc3cnccn3)c1C)C(=O)c1ccccc1C2=O [YM155] (1000 nM) | -1.55 | -47.8 | -55.5 | -31.1 | 42.2 | 77 | -14.7
41 | O=C(/C=C/c1cccc(S(=O)(=O)Nc2ccccc2)c1)NO [Belinostat] (10000 nM) | 21.2 | 54.6 | 43.3 | -5.71 | 88.7 | 76 | -14
42 | COCC1(CO)C(=O)C2CCN1CC2 (centres undefined) [Prima-1 Met] (1000 nM) | 104 | 101 | 103 | 98.3 | 107 | 104 | 99.5
